Measurements published in ChEMBL document CHEMBL1201862, “PubChem BioAssay data set” (2004).
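Grown in 96-well plates, cells were treated for 48 hours with each compound at five concentrations. Insufficient inhibition: endpoint recorded as highest concentration tested. GI50 marks 50% less growth.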 The source made the active and inactive calls. Cut-off read from the data, not from the text of the source: active = GI50 up to about 1.1 µM and inactive = higher.

Legend:
Assay in all cases: inhibition of tumour cell growth, NCI panel, 48 h
SK-OV-3 = test system: SK-OV-3
HL-60 = test system: HL-60
HCT-15 = test system: HCT-15
HT-29 = test system: HT-29
KM-20L2 = test system: KM-20L2
ACHN = test system: ACHN
A498 = test system: A498
NCI-H522 = test system: NCI-H522
HOP-18 = test system: HOP-18
NCI-H460 = test system: NCI-H460
SK-MEL-5 = test system: SK-MEL-5
SNB-78 = test system: SNB-78
786-0 = test system: 786-0
RPMI-8226 = test system: RPMI-8226
SNB-19 = test system: SNB-19
LXFL 529 = test system: LXFL 529
COLO 205 = test system: COLO 205
HCT-116 = test system: HCT-116
SK-MEL-2 = test system: SK-MEL-2
MOLT-4 = test system: MOLT-4
SW-620 = test system: SW-620
U-251 = test system: U-251
HOP-62 = test system: HOP-62
Malme-3M = test system: Malme-3M
UO-31 = test system: UO-31
LOX IMVI = test system: LOX IMVI
M19-MEL = test system: M19-MEL
CCRF-CEM = test system: CCRF-CEM
IGROV-1 = test system: IGROV-1
RXF 631 = test system: RXF 631
DMS-114 = test system: DMS-114
SN12C = test system: SN12C
OVCAR-5 = test system: OVCAR-5
XF498 = test system: XF498
EKVX = test system: EKVX
M14 = test system: M14
OVCAR-4 = test system: OVCAR-4
DLD-1 = test system: DLD-1
A549 = test system: A549
SNB-75 = test system: SNB-75
SF-295 = test system: SF-295
SR = test system: SR
KM12 = test system: KM12
OVCAR-3 = test system: OVCAR-3
TK-10 = test system: TK-10
UACC-257 = test system: UACC-257
SK-MEL-28 = test system: SK-MEL-28
SF-268 = test system: SF-268
HCC 2998 = test system: HCC 2998
NCI-H226 = test system: NCI-H226
SF-539 = test system: SF-539
RXF 393 = test system: RXF 393
UACC-62 = test system: UACC-62
NCI-H23 = test system: NCI-H23
OVCAR-8 = test system: OVCAR-8
K562 = test system: K562
HOP-92 = test system: HOP-92
CAKI-1 = test system: CAKI-1

SMILES: C/C(=N\NC(=S)NC(CCC(=O)O)C(=O)O)c1cnccn1 (configuration not stated)
- GI50 (SK-OV-3): > 100 µM (inactive)
- GI50 (HL-60): > 100 µM (inactive)
- GI50 (HCT-15): > 100 µM
- GI50 (HT-29): > 100 µM (inactive)
- GI50 (KM-20L2): > 100 µM (inactive)
- GI50 (ACHN): > 100 µM (inactive)
- GI50 (A498): > 100 µM (inactive)
- GI50 (NCI-H522): > 100 µM (inactive)
- GI50 (HOP-18): > 100 µM (inactive)
- GI50 (NCI-H460): > 100 µM (inactive)
- GI50 (SK-MEL-5): > 100 µM (inactive)
- GI50 (SNB-78): > 100 µM (inactive)
- GI50 (786-0): > 100 µM (inactive)
- GI50 (RPMI-8226): > 100 µM (inactive)
- GI50 (SNB-19): > 100 µM (inactive)
- GI50 (LXFL 529): > 100 µM (inactive)
- GI50 (COLO 205): > 100 µM (inactive)
- GI50 (HCT-116): > 100 µM (inactive)
- GI50 (SK-MEL-2): > 100 µM (inactive)
- GI50 (MOLT-4): > 100 µM (inactive)
- GI50 (SW-620): > 100 µM (inactive)
- GI50 (U-251): > 100 µM (inactive)
- GI50 (HOP-62): > 100 µM (inactive)
- GI50 (Malme-3M): > 100 µM (inactive)
- GI50 (UO-31): > 100 µM (inactive)
- GI50 (LOX IMVI): > 100 µM (inactive)
- GI50 (M19-MEL): > 100 µM (inactive)
- GI50 (CCRF-CEM): > 100 µM (inactive)
- GI50 (IGROV-1): > 100 µM (inactive)
- GI50 (RXF 631): > 100 µM (inactive)
- GI50 (DMS-114): > 100 µM (inactive)
- GI50 (SN12C): > 100 µM (inactive)
- GI50 (OVCAR-5): > 100 µM (inactive)
- GI50 (XF498): > 100 µM (inactive)
- GI50 (EKVX): > 100 µM (inactive)
- GI50 (M14): > 100 µM (inactive)
- GI50 (OVCAR-4): > 100 µM (inactive)
- GI50 (DLD-1): > 100 µM (inactive)
- GI50 (A549): > 100 µM (inactive)
- GI50 (SNB-75): > 100 µM (inactive)
- GI50 (SF-295): > 100 µM (inactive)
- GI50 (SR): > 100 µM (inactive)
- GI50 (KM12): > 100 µM (inactive)
- GI50 (OVCAR-3): > 100 µM (inactive)
- GI50 (TK-10): > 100 µM (inactive)
- GI50 (UACC-257): > 100 µM (inactive)
- GI50 (SK-MEL-28): > 100 µM (inactive)
- GI50 (SF-268): > 100 µM (inactive)
- GI50 (HCC 2998): > 100 µM (inactive)
- GI50 (NCI-H226): > 100 µM (inactive)
- GI50 (SF-539): > 100 µM (inactive)
- GI50 (RXF 393): > 100 µM (inactive)
- GI50 (UACC-62): > 100 µM (inactive)
- GI50 (NCI-H23): > 100 µM (inactive)
- GI50 (OVCAR-8): > 100 µM (inactive)
- GI50 (K562): > 100 µM (inactive)
- GI50 (HOP-92): > 100 µM (inactive)

SMILES: N#Cc1cc([N+](=O)[O-])ccc1NC(=O)C(=O)C(C(=O)/C=C/c1ccccc1)C1OC(=O)c2ccccc21 (configuration not stated)
- GI50 (SK-OV-3): > 100 µM (inactive)
- GI50 (HL-60): > 100 µM (inactive)
- GI50 (HCT-15): > 100 µM
- GI50 (HT-29): > 100 µM (inactive)
- GI50 (KM-20L2): > 100 µM (inactive)
- GI50 (ACHN): > 100 µM (inactive)
- GI50 (A498): > 100 µM (inactive)
- GI50 (NCI-H522): > 100 µM (inactive)
- GI50 (HOP-18): > 100 µM (inactive)
- GI50 (NCI-H460): > 100 µM (inactive)
- GI50 (SK-MEL-5): > 100 µM (inactive)
- GI50 (SNB-78): > 100 µM (inactive)
- GI50 (786-0): > 100 µM (inactive)
- GI50 (CAKI-1): > 100 µM (inactive)
- GI50 (SNB-19): > 100 µM (inactive)
- GI50 (LXFL 529): > 100 µM (inactive)
- GI50 (COLO 205): > 100 µM (inactive)
- GI50 (HCT-116): > 100 µM (inactive)
- GI50 (SW-620): > 100 µM (inactive)
- GI50 (U-251): > 100 µM (inactive)
- GI50 (HOP-62): > 100 µM (inactive)
- GI50 (Malme-3M): > 100 µM (inactive)
- GI50 (UO-31): > 100 µM (inactive)
- GI50 (LOX IMVI): > 100 µM (inactive)
- GI50 (M19-MEL): > 100 µM (inactive)
- GI50 (CCRF-CEM): 8.65 µM (inactive)
- GI50 (IGROV-1): > 100 µM (inactive)
- GI50 (RXF 631): > 100 µM (inactive)
- GI50 (DMS-114): > 100 µM (inactive)
- GI50 (SN12C): > 100 µM (inactive)
- GI50 (OVCAR-5): > 100 µM (inactive)
- GI50 (XF498): > 100 µM (inactive)
- GI50 (EKVX): > 100 µM (inactive)
- GI50 (M14): > 100 µM (inactive)
- GI50 (OVCAR-4): > 100 µM (inactive)
- GI50 (DLD-1): > 100 µM (inactive)
- GI50 (A549): > 100 µM (inactive)
- GI50 (SNB-75): > 100 µM (inactive)
- GI50 (SF-295): > 100 µM (inactive)
- GI50 (SR): 1.69 µM (inactive)
- GI50 (KM12): > 100 µM (inactive)
- GI50 (OVCAR-3): > 100 µM (inactive)
- GI50 (TK-10): > 100 µM (inactive)
- GI50 (UACC-257): > 100 µM (inactive)
- GI50 (SK-MEL-28): > 100 µM (inactive)
- GI50 (SF-268): > 100 µM (inactive)
- GI50 (HCC 2998): > 100 µM (inactive)
- GI50 (NCI-H226): > 100 µM (inactive)
- GI50 (SF-539): > 100 µM (inactive)
- GI50 (RXF 393): 60.5 µM (inactive)
- GI50 (UACC-62): > 100 µM (inactive)
- GI50 (NCI-H23): > 100 µM (inactive)
- GI50 (OVCAR-8): > 100 µM (inactive)
- GI50 (K562): 13.9 µM (inactive)
- GI50 (HOP-92): > 100 µM (inactive)
